How the values were obtained:
cathepsin targets = assay: Cathepsin targets of the compounds (Table 4); assay type: biochemical, rat; conditions: cathepsin target(s) inhibited; General = all cathepsins
Description: (§1) Also included in the table for comparison are known compounds JPMOEt and JPMOH (also known as JPM-565). See Meara and Rich, J. Med. Chem. 39:3357-3366, 1996; Bogyo et al, Chem. Biol. 7:27-38, 2000; and Joyce et al., Cancer Cell 5:443-453, 2004. The table also lists cathepsin targets and measured IC50 values for specific compounds. To determine these values, 1 mg/ml of rat liver lysate was incubated with a series of concentrations of the inhibitor for 20 minutes. Then, 1 ul of a radiolabled general cathepsin probe, DCG-04, was added to the solutions and incubated for 1 hour. After fixing and drying the gel, the residual enzyme activity was measured using ImageJ software. The measurements were then transferred to GraphPad Prism 4 to calculate the IC50 values.

RIP-Tag cancer model = conditions: Joyce et al., Cancer Cell 5:443-453, 2004; cited from earlier work
CatH = biological target: T1, CatH (Rattus norvegicus, UniProt P00786); assay: IC50 by competition with radiolabeled general cathepsin probe DCG-04 in rat liver lysate; assay type: biochemical; conditions: 1 mg/ml rat liver lysate, inhibitor 20 minutes, then DCG-04 1 hour
T1 construct: from tissue; host or cells: rat liver lysate
T1 sequence (P00786 96-333): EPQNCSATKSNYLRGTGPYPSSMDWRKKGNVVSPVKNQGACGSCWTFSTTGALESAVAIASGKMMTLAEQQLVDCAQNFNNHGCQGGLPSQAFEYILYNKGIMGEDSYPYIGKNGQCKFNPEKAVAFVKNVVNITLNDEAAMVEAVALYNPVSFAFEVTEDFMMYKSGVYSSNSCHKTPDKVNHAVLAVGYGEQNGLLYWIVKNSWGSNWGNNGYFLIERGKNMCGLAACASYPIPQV
Description: as §1

CatZ (Cathepsin Z) = biological target: T2, CatZ (Cathepsin Z) (Rattus norvegicus, UniProt Q9R1T3); assay: as above; assay type: biochemical; conditions: 1 mg/ml rat liver lysate, inhibitor 20 minutes, then DCG-04 1 hour
T2 construct: from tissue; host or cells: rat liver lysate
T2 sequence (Q9R1T3 64-306): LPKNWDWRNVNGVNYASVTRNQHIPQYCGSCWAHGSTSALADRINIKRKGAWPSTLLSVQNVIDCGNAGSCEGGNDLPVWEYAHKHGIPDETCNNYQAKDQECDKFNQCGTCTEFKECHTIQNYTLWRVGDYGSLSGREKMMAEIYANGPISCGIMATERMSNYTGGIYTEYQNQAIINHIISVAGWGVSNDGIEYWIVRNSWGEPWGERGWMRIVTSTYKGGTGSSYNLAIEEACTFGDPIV
Description: as §1

CatC = biological target: T3, CatC (Rattus norvegicus, UniProt P80067); assay: as above; assay type: biochemical; conditions: 1 mg/ml rat liver lysate, inhibitor 20 minutes, then DCG-04 1 hour
T3 construct: from tissue; host or cells: rat liver lysate
T3 sequence (P80067 25-462): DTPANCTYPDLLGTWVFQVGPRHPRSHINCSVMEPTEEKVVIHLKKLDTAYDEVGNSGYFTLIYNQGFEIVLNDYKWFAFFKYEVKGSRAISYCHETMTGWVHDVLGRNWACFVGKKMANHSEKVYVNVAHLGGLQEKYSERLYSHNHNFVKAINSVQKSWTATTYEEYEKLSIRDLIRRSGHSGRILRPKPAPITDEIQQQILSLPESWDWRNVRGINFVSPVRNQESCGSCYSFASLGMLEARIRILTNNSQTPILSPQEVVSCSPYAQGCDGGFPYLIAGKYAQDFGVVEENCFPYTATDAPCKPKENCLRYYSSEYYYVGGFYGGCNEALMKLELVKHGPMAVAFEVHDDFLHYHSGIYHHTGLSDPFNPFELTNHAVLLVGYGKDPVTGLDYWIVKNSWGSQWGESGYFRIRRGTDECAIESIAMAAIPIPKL
Description: as §1

CatB = biological target: T4, CatB (Rattus norvegicus, UniProt P00787); assay: as above; assay type: biochemical; conditions: 1 mg/ml rat liver lysate, inhibitor 20 minutes, then DCG-04 1 hour
T4 construct: from tissue; host or cells: rat liver lysate / homogenate
T4 sequence (P00787 80-333): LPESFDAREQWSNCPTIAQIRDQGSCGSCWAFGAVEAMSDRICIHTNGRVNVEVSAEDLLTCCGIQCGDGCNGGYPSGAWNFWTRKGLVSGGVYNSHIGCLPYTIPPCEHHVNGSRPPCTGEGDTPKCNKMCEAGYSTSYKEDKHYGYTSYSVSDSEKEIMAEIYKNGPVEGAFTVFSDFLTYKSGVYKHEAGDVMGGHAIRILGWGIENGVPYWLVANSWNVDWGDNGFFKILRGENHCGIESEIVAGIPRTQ
Description: as §1

For `CC(C)C[C@H](NC(=O)[C@H]1O[C@@H]1C(=O)O)C(=O)NCCc1ccc(O)cc1` [JPMOH, reference compound], the Target (cathepsin targets) is listed as “General”, the “efficacy in the RIP-Tag cancer model” value (RIP-Tag cancer model) is listed as “shown to have efficacy in the RIP-Tag cancer model” and the IC50 (CatH) is listed as 580 nM. It also gave an IC50 (CatZ (Cathepsin Z)) of 100 nM, an IC50 (CatC) of 1000 nM and an IC50 (CatB) of 400 nM.

From patent publication US8673904B2, “Epoxide inhibitors of cysteine proteases” (The Board of Trustees of the Leland Stanford Junior …, priority 2006, dated 2014)
